How the values were obtained:
Type in all cases: in vivo
[1] = tested on: Beet Armyworm (BAW) (Spodoptera exigua); assay: Bioassay on Beet Armyworm (BAW), 128-well diet tray assay; settings: 168 h, Table ABC, 50 μg/cm^2 on artificial diet, second instar larvae, five to seven days, 25° C., read-out: BAW % Control (or Mortality) rating
Method: (§1) Certain molecules disclosed in this document were tested against BAW and CL using procedures described in the following examples. In the reporting of the results, the “BAW & CL Rating Table” was used (See Table Section).
Bioassays on BAW were conducted using a 128-well diet tray assay. one to five second instar BAW larvae were placed in each well (3 mL) of the diet tray that had been previously filled with 1 mL of artificial diet to which 50 μg/cm^2 of the test compound (dissolved in 50 μL of 90:10 acetone-water mixture) had been applied (to each of eight wells) and then allowed to dry. Trays were covered with a clear self-adhesive cover, and held at 25° C., 14:10 light-dark for five to seven days. Percent mortality was recorded for the larvae in each well; activity in the eight wells was then averaged. The results are indicated in the tables entitled “Table ABC: Assay Results” and “Table ABCD: Assay Results” (See Table Section).

[2] = tested on: Yellow Fever Mosquito (YFM) (Aedes aegypti); assay: Bioassay on Yellow Fever Mosquito (YFM) larvae, 96-well plate; settings: Table ABC; about 1 day-old larvae, master plate 4000 ppm in DMSO diluted, scored on mortality after 3 days
Method: Certain molecules disclosed in this document were tested against YFM using procedures described in the following paragraph. In the reporting of the results, the “GPA & YFM Rating Table” was used (See Table Section).
Master plates containing 400 μg of a molecule dissolved in 100 μL of dimethyl sulfoxide (DMSO) (equivalent to a 4000 ppm solution) are used. A master plate of assembled molecules contains 15 μL per well. To this plate, 135 μL of a 90:10 water:acetone mixture is added to each well. A robot (Biomek® NXP Laboratory Automation Workstation) is programmed to dispense 15 μL aspirations from the master plate into an empty 96-well shallow plate (“daughter” plate). There are 6 reps (“daughter” plates) created per master. The created daughter plates are then immediately infested with YFM larvae.
The day before plates are to be treated, mosquito eggs are placed in Millipore water containing liver powder to begin hatching (4 g. into 400 mL). After the daughter plates are created using the robot, they are infested with 220 μL of the liver powder/larval mosquito mixture (about 1 day-old larvae). After plates are infested with mosquito larvae, a non-evaporative lid is used to cover the plate to reduce drying. Plates are held at room temperature for 3 days prior to grading. After 3 days, each well is observed and scored based on mortality.

[3] = tested on: Cabbage Looper (CL) (Trichoplusia ni); assay: Bioassay on Cabbage Looper (CL), 128-well diet tray assay; settings: 168 h, Table ABC, 50 μg/cm^2 on artificial diet, second instar larvae, five to seven days, 25° C., read-out: CL % Control (or Mortality) rating
Method: as §1
Bioassays on CL were conducted using a 128-well diet tray assay. One to five second instar CL larvae were placed in each well (3 mL) of the diet tray that had been previously filled with 1 mL of artificial diet to which 50 μg/cm^2 of the test compound (dissolved in 50 μL of 90:10 acetone-water mixture) had been applied (to each of eight wells) and then allowed to dry. Trays were covered with a clear self-adhesive cover, and held at 25° C., 14:10 light-dark for five to seven days. Percent mortality was recorded for the larvae in each well; activity in the eight wells was then averaged. The results are indicated in the table entitled “Table ABC: Assay Results” and “Table ABCD: Assay Results” (See Table Section).

SMILES	mortality at 50 µg/cm2 [1]	YFM % Control (or Mortality) rating [2]	mortality at 50 µg/cm2 [3]
CC(C)c1cc(F)ccc1N1C(=O)CS/C1=N\C(=O)NC1Cc2ccc(-c3ncn(-c4ccc(OC(F)(F)F)cc4)n3)cc2C1 (stereo not drawn) [P10, (Z)-1-(3-(4-Fluoro-2-isopropylphenyl)-4-oxothiazolidin-2-ylidene)-3-(5-(1-(4-(trifluoromethoxy)phenyl)-1H-1,2,4-triazol-3-yl)-2,3-dihydro-1H-inden-2-yl)urea]	50 to 100%	A (80-100)	50 to 100%
Cc1ccc(C(C)C)c(-n2c(C)cs/c2=N\C(=O)NC2Cc3ccc(-c4ncn(-c5ccc(OC(F)(F)F)cc5)n4)cc3C2)c1 (stereo not drawn) [P12, (Z)-1-(3-(2-Isopropyl-5-methylphenyl)-4-methylthiazol-2(3H)-ylidene)-3-(5-(1-(4-(trifluoromethoxy)phenyl)-1H-1,2,4-triazol-3-yl)-2,3-dihydro-1H-inden-2-yl)urea]	50 to 100%	A (80-100)	50 to 100%
Cc1ccc(C(C)C)c(N2C(=O)C(C)S/C2=N\C(=O)NC2Cc3ccc(-c4ncn(-c5ccc(OC(F)(F)F)cc5)n4)cc3C2)c1 (stereo not drawn) [P13, (Z)-1-(3-(2-Isopropyl-5-methylphenyl)-5-methyl-4-oxothiazolidin-2-ylidene)-3-(5-(1-(4-(trifluoromethoxy)phenyl)-1H-1,2,4-triazol-3-yl)-2,3-dihydro-1H-inden-2-yl)urea]	50 to 100%	B (More than 0-Less than 80)	50 to 100%
Cc1ccc(C(C)C)c(N2CC(C)CS/C2=N\C(=O)NC2Cc3ccc(-c4ncn(-c5ccc(OC(F)(F)F)cc5)n4)cc3C2)c1 (stereo not drawn) [P18, (Z)-1-(3-(2-isopropyl-5-methylphenyl)-5-methyl-1,3-thiazinan-2-ylidene)-3-(5-(1-(4-(trifluoromethoxy)phenyl)-1H-1,2,4-triazol-3-yl)-2,3-dihydro-1H-inden-2-yl)urea]	50 to 100%	A (80-100)	50 to 100%
CC(C)c1ccccc1N1CCCS/C1=N\C(=O)NC1Cc2ccc(-c3ncn(-c4ccc(OC(F)(F)F)cc4)n3)cc2C1 (stereo not drawn) [P19, (Z)-1-(3-(2-Isopropylphenyl)-1,3-thiazinan-2-ylidene)-3-(5-(1-(4-(trifluoromethoxy)phenyl)-1H-1,2,4-triazol-3-yl)-2,3-dihydro-1H-inden-2-yl)urea]	50 to 100%	A (80-100)	50 to 100%
Cc1ccc(C(C)C)c(N2CCCS/C2=N\C(=O)NC2Cc3ccc(-c4ncn(-c5ccc(OC(F)(F)F)cc5)n4)cc3C2)c1 (stereo not drawn) [P20, (Z)-1-(3-(2-Isopropyl-5-methylphenyl)-1,3-thiazinan-2-ylidene)-3-(5-(1-(4-(trifluoromethoxy)phenyl)-1H-1,2,4-triazol-3-yl)-2,3-dihydro-1H-inden-2-yl)urea]	50 to 100%	A (80-100)	50 to 100%
Cc1ccc(C(C)C)c(NC(=S)NC(=O)NC2CCc3cc(-c4ncn(-c5ccc(OC(F)(F)F)cc5)n4)ccc3C2)c1 (stereo not drawn) [P21, 1-[(2-Isopropyl-5-methyl-phenyl)carbamothioyl]-3-[6-[1-[4-(trifluoromethoxy)phenyl]-1,2,4-triazol-3-yl]tetralin-2-yl]urea]	50 to 100%	A (80-100)	50 to 100%
CC(C)c1ccccc1NC(=S)NC(=O)NC1CCc2cc(-c3ncn(-c4ccc(OC(F)(F)F)cc4)n3)ccc2C1 (stereo not drawn) [P22, 1-[(2-Isopropylphenyl)carbamothioyl]-3-[6-[1-[4-(trifluoromethoxy)phenyl]-1,2,4-triazol-3-yl]tetralin-2-yl]urea]	50 to 100%	A (80-100)	50 to 100%
CC(C)c1ccccc1N1C(=O)CS/C1=N\C(=O)NC1CCc2cc(-c3ncn(-c4ccc(OC(F)(F)F)cc4)n3)ccc2C1 (stereo not drawn) [P24, (Z)-1-(3-(2-Isopropylphenyl)-4-oxothiazolidin-2-ylidene)-3-(6-(1-(4-(trifluoromethoxy)phenyl)-1H-1,2,4-triazol-3-yl)-1,2,3,4-tetrahydronaphthalen-2-yl)urea]	50 to 100%	A (80-100)	50 to 100%
Cc1ccc(C)c(NC(=S)NC(=O)NC2CCc3cc(-c4ncn(-c5ccc(OC(F)(F)F)cc5)n4)ccc3C2)c1 (stereo not drawn) [P25, 1-[(2,5-Dimethylphenyl)carbamothioyl]-3-[6-[1-[4-(trifluoromethoxy)phenyl]-1,2,4-triazol-3-yl]tetralin-2-yl]urea]	50 to 100%	A (80-100)	50 to 100%
CC(C)c1ccc(Cl)cc1NC(=S)NC(=O)NC1CCc2cc(-c3ncn(-c4ccc(OC(F)(F)F)cc4)n3)ccc2C1 (stereo not drawn) [P26, 1-[(5-Chloro-2-isopropyl-phenyl)carbamothioyl]-3-[6-[1-[4-(trifluoromethoxy)phenyl]-1,2,4-triazol-3-yl]tetralin-2-yl]urea]	50 to 100%	A (80-100)	50 to 100%
CCCc1ccc(C)cc1NC(=S)NC(=O)NC1CCc2cc(-c3ncn(-c4ccc(OC(F)(F)F)cc4)n3)ccc2C1 (stereo not drawn) [P27, 1-[(5-Methyl-2-propyl-phenyl)carbamothioyl]-3-[6-[1-[4-(trifluoromethoxy)phenyl]-1,2,4-triazol-3-yl]tetralin-2-yl]urea]	50 to 100%	A (80-100)	50 to 100%
COc1ccc(NC(=S)NC(=O)NC2CCc3cc(-c4ncn(-c5ccc(OC(F)(F)F)cc5)n4)ccc3C2)c(C)c1 (stereo not drawn) [P28, 1-[(4-Methoxy-2-methyl-phenyl)carbamothioyl]-3-[6-[1-[4-(trifluoromethoxy)phenyl]-1,2,4-triazol-3-yl]tetralin-2-yl]urea]	50 to 100%	A (80-100)	50 to 100%
CCc1cccc(C)c1NC(=S)NC(=O)NC1CCc2cc(-c3ncn(-c4ccc(OC(F)(F)F)cc4)n3)ccc2C1 (stereo not drawn) [P29, 1-[(2-Ethyl-6-methyl-phenyl)carbamothioyl]-3-[6-[1-[4-(trifluoromethoxy)phenyl]-1,2,4-triazol-3-yl]tetralin-2-yl]urea]	50 to 100%	A (80-100)	50 to 100%
Cc1ccc(Cl)c(NC(=S)NC(=O)NC2CCc3cc(-c4ncn(-c5ccc(OC(F)(F)F)cc5)n4)ccc3C2)c1 (stereo not drawn) [P30, 1-[(2-Chloro-5-methyl-phenyl)carbamothioyl]-3-[6-[1-[4-(trifluoromethoxy)phenyl]-1,2,4-triazol-3-yl]tetralin-2-yl]urea]	50 to 100%	A (80-100)	50 to 100%
COc1ccc(C)cc1NC(=S)NC(=O)NC1CCc2cc(-c3ncn(-c4ccc(OC(F)(F)F)cc4)n3)ccc2C1 (stereo not drawn) [P31, 1-[(2-Methoxy-5-methyl-phenyl)carbamothioyl]-3-[6-[1-[4-(trifluoromethoxy)phenyl]-1,2,4-triazol-3-yl]tetralin-2-yl]urea]	50 to 100%	A (80-100)	50 to 100%

Source: patent US9469617B2, “Molecules having certain pesticidal utilities, and intermediates, compositions, and processes related thereto” (priority 2014, dated 2016)
